In BigSolDB 2.1:

c1ccc(OP2(Oc3ccccc3)=NP(Oc3ccccc3)(Oc3ccccc3)=NP(Oc3ccccc3)(Oc3ccccc3)=N2)cc1
Details | solubility (mole fraction)
in 2-ethoxyethanol, 298.15 K | 0.0065
in 2-ethoxyethanol, 300.95 K | 0.0074
in 2-ethoxyethanol, 303.25 K | 0.0081
in 2-ethoxyethanol, 310.15 K | 0.0106
in 2-ethoxyethanol, 314.55 K | 0.0126
in 2-ethoxyethanol, 318.75 K | 0.0148
in 2-ethoxyethanol, 323.65 K | 0.0182
in 2-ethoxyethanol, 328.05 K | 0.0212
in 2-ethoxyethanol, 333.15 K | 0.0259
in 2-ethoxyethanol, 343.25 K | 0.0352
in 2-ethoxyethanol, 348.35 K | 0.042
in 2-ethoxyethanol, 353.15 K | 0.0478
in THF, 293.25 K | 0.151
in THF, 298.15 K | 0.175
in THF, 304.35 K | 0.2
in THF, 308.25 K | 0.223
in THF, 314.25 K | 0.253
in THF, 318.45 K | 0.285
in THF, 323.15 K | 0.315
in THF, 328.25 K | 0.346
in acetone, 293.15 K | 0.0295
in acetone, 296.45 K | 0.0349
in acetone, 300.25 K | 0.0423
in acetone, 304.35 K | 0.0496
in acetone, 308.25 K | 0.0588
in acetone, 314.25 K | 0.0782
in acetone, 318.35 K | 0.093
in acetone, 323.15 K | 0.117
in acetonitrile, 298.25 K | 0.004
in acetonitrile, 303.55 K | 0.006
in acetonitrile, 308.25 K | 0.0082
in acetonitrile, 313.35 K | 0.0122
in acetonitrile, 318.35 K | 0.017
in acetonitrile, 323.45 K | 0.0243
in acetonitrile, 328.15 K | 0.0332
in acetonitrile, 333.25 K | 0.0457
in dichloromethane, 293.35 K | 0.099
in dichloromethane, 295.95 K | 0.111
in dichloromethane, 300.35 K | 0.139
in dichloromethane, 303.15 K | 0.158
in dichloromethane, 306.05 K | 0.179
in dichloromethane, 310.35 K | 0.219
in diethyl ether, 293.15 K | 0.0101
in diethyl ether, 296.25 K | 0.0122
in diethyl ether, 299.05 K | 0.014
in diethyl ether, 300.35 K | 0.0154
in diethyl ether, 303.15 K | 0.0178
in diethyl ether, 306.05 K | 0.0211
in ethanol, 298.25 K | 0.0096
in ethanol, 300.95 K | 0.0099
in ethanol, 303.25 K | 0.0102
in ethanol, 308.15 K | 0.011
in ethanol, 313.45 K | 0.0119
in ethanol, 318.75 K | 0.0129
in ethanol, 323.05 K | 0.0136
in ethanol, 328.35 K | 0.0147
in ethyl acetate, 298.15 K | 0.0592
in ethyl acetate, 300.95 K | 0.0655
in ethyl acetate, 303.25 K | 0.0699
in ethyl acetate, 308.25 K | 0.0829
in ethyl acetate, 313.25 K | 0.0983
in ethyl acetate, 319.05 K | 0.119
in ethyl acetate, 323.15 K | 0.136
in ethyl acetate, 328.25 K | 0.159
in n-heptane, 298.15 K | 0.0035
in n-heptane, 303.45 K | 0.0039
in n-heptane, 308.35 K | 0.0044
in n-heptane, 313.05 K | 0.0049
in n-heptane, 318.25 K | 0.0056
in n-heptane, 323.35 K | 0.0062
in n-heptane, 328.25 K | 0.0069
in n-heptane, 333.15 K | 0.0075
in toluene, 298.05 K | 0.0572
in toluene, 300.95 K | 0.065
in toluene, 303.35 K | 0.0717
in toluene, 310.25 K | 0.0904
in toluene, 314.45 K | 0.106
in toluene, 318.65 K | 0.123
in toluene, 323.55 K | 0.15
in toluene, 327.95 K | 0.173
in toluene, 333.15 K | 0.209
in toluene, 338.25 K | 0.246

O=[PH](O)c1ccccc1
Details | solubility (mole fraction)
in 2-ethoxyethanol, 288.15 K | 0.124
in 2-ethoxyethanol, 293.85 K | 0.136
in 2-ethoxyethanol, 298.25 K | 0.148
in 2-ethoxyethanol, 303.45 K | 0.165
in 2-ethoxyethanol, 313.15 K | 0.205
in 2-ethoxyethanol, 318.25 K | 0.227
in 2-ethoxyethanol, 323.65 K | 0.239
in 2-ethoxyethanol, 328.25 K | 0.259
in 2-ethoxyethanol, 333.45 K | 0.283
in 2-ethoxyethanol, 338.35 K | 0.308
in 2-ethoxyethanol, 343.25 K | 0.344
in 2-ethoxyethanol, 348.25 K | 0.372
in 2-ethoxyethanol, 353.25 K | 0.397
in 2-ethoxyethanol, 358.55 K | 0.434
in 2-ethoxyethanol, 363.15 K | 0.459
in acetone, 293.35 K | 0.0305
in acetone, 298.15 K | 0.0448
in acetone, 303.55 K | 0.0671
in acetone, 308.25 K | 0.0879
in acetone, 313.45 K | 0.124
in acetone, 318.25 K | 0.186
in acetone, 323.35 K | 0.256
in benzene, 299.15 K | 0.054
in benzene, 303.65 K | 0.0709
in benzene, 308.55 K | 0.111
in benzene, 313.25 K | 0.145
in benzene, 318.45 K | 0.225
in benzene, 323.15 K | 0.308
in benzene, 328.35 K | 0.415
in benzene, 333.15 K | 0.554
in chloroform, 293.15 K | 0.134
in chloroform, 298.45 K | 0.157
in chloroform, 303.25 K | 0.186
in chloroform, 308.25 K | 0.228
in chloroform, 313.15 K | 0.269
in chloroform, 318.35 K | 0.315
in chloroform, 323.25 K | 0.357
in dichloromethane, 288.15 K | 0.0292
in dichloromethane, 293.35 K | 0.0386
in dichloromethane, 296.25 K | 0.0458
in dichloromethane, 298.15 K | 0.0528
in dichloromethane, 303.45 K | 0.0709
in dichloromethane, 308.25 K | 0.091
in ethanol, 283.25 K | 0.0889
in ethanol, 288.65 K | 0.112
in ethanol, 293.15 K | 0.136
in ethanol, 298.35 K | 0.168
in ethanol, 303.45 K | 0.205
in ethanol, 308.25 K | 0.245
in ethanol, 313.45 K | 0.297
in ethanol, 318.55 K | 0.356
in ethanol, 323.35 K | 0.42
in ethyl acetate, 293.45 K | 0.0144
in ethyl acetate, 298.15 K | 0.0185
in ethyl acetate, 303.25 K | 0.0275
in ethyl acetate, 313.45 K | 0.0494
in ethyl acetate, 318.25 K | 0.0661
in ethyl acetate, 328.35 K | 0.107
in ethyl acetate, 333.25 K | 0.136
in ethyl acetate, 338.55 K | 0.174
in methanol, 293.55 K | 0.173
in methanol, 298.15 K | 0.215
in methanol, 303.75 K | 0.28
in methanol, 308.35 K | 0.344
in methanol, 313.45 K | 0.429
in methanol, 318.25 K | 0.526
in methanol, 323.65 K | 0.655
in toluene, 293.15 K | 0.0187
in toluene, 298.35 K | 0.0282
in toluene, 303.45 K | 0.0389
in toluene, 313.25 K | 0.0652
in toluene, 318.15 K | 0.0934
in toluene, 323.35 K | 0.125
in toluene, 328.15 K | 0.162
in toluene, 333.55 K | 0.199
in toluene, 338.45 K | 0.255
in toluene, 343.15 K | 0.316
in toluene, 348.35 K | 0.413
in water, 297.79 K | 0.0095
in water, 300.25 K | 0.0111
in water, 302.4 K | 0.0129
in water, 305.22 K | 0.0159
in water, 309.93 K | 0.0218
in water, 312.84 K | 0.0305
in water, 318.15 K | 0.0433
in water, 323.35 K | 0.0572
in water, 328.15 K | 0.085
in water, 333.45 K | 0.11
in water, 338.25 K | 0.161
in water, 343.15 K | 0.208

CP(=O)(O)c1ccccc1
Details | solubility (mole fraction)
in 2-ethoxyethanol, 298.15 K | 0.252
in 2-ethoxyethanol, 303.15 K | 0.289
in 2-ethoxyethanol, 313.25 K | 0.348
in 2-ethoxyethanol, 318.15 K | 0.397
in 2-ethoxyethanol, 323.35 K | 0.441
in 2-ethoxyethanol, 328.25 K | 0.472
in 2-ethoxyethanol, 333.15 K | 0.519
in 2-ethoxyethanol, 338.45 K | 0.587
in 2-ethoxyethanol, 343.35 K | 0.639
in 2-ethoxyethanol, 348.35 K | 0.697
in 2-ethoxyethanol, 353.15 K | 0.751
in acetone, 293.15 K | 0.0473
in acetone, 298.15 K | 0.0609
in acetone, 303.25 K | 0.0816
in acetone, 308.15 K | 0.0995
in acetone, 313.35 K | 0.127
in acetone, 318.15 K | 0.165
in acetone, 323.25 K | 0.204
in benzene, 293.25 K | 0.0386
in benzene, 298.15 K | 0.0541
in benzene, 303.15 K | 0.0809
in benzene, 308.35 K | 0.113
in benzene, 313.25 K | 0.163
in benzene, 318.15 K | 0.218
in benzene, 323.25 K | 0.301
in benzene, 328.15 K | 0.419
in benzene, 333.35 K | 0.563
in chloroform, 293.15 K | 0.112
in chloroform, 298.25 K | 0.132
in chloroform, 303.15 K | 0.156
in chloroform, 308.35 K | 0.188
in chloroform, 313.15 K | 0.214
in chloroform, 318.45 K | 0.255
in chloroform, 323.15 K | 0.288
in chloroform, 328.15 K | 0.34
in dichloromethane, 288.55 K | 0.0465
in dichloromethane, 293.65 K | 0.0697
in dichloromethane, 296.15 K | 0.0904
in dichloromethane, 298.35 K | 0.104
in dichloromethane, 303.25 K | 0.164
in dichloromethane, 308.35 K | 0.235
in ethanol, 293.25 K | 0.205
in ethanol, 298.15 K | 0.266
in ethanol, 303.35 K | 0.333
in ethanol, 308.25 K | 0.39
in ethanol, 313.55 K | 0.486
in ethanol, 318.45 K | 0.614
in ethanol, 323.15 K | 0.734
in ethanol, 328.25 K | 0.872
in ethyl acetate, 288.35 K | 0.0484
in ethyl acetate, 293.15 K | 0.0621
in ethyl acetate, 298.25 K | 0.075
in ethyl acetate, 303.45 K | 0.0941
in ethyl acetate, 313.35 K | 0.152
in ethyl acetate, 318.15 K | 0.182
in ethyl acetate, 328.15 K | 0.265
in ethyl acetate, 333.35 K | 0.304
in ethyl acetate, 338.15 K | 0.359
in ethyl acetate, 343.25 K | 0.428
in methanol, 298.35 K | 0.317
in methanol, 303.15 K | 0.343
in methanol, 308.15 K | 0.372
in methanol, 313.25 K | 0.406
in methanol, 318.35 K | 0.439
in methanol, 323.15 K | 0.471
in methanol, 328.25 K | 0.499
in toluene, 293.25 K | 0.12
in toluene, 298.35 K | 0.147
in toluene, 303.25 K | 0.168
in toluene, 308.35 K | 0.204
in toluene, 313.15 K | 0.229
in toluene, 323.25 K | 0.327
in toluene, 328.35 K | 0.377
in toluene, 333.25 K | 0.418
in toluene, 338.15 K | 0.479
in toluene, 343.45 K | 0.564
in water, 298.15 K | 0.0154
in water, 303.35 K | 0.0204
in water, 310.45 K | 0.027
in water, 314.25 K | 0.032
in water, 320.45 K | 0.0414
in water, 324.15 K | 0.0477
in water, 329.25 K | 0.0579
in water, 333.65 K | 0.0679
in water, 338.75 K | 0.0865
in water, 343.45 K | 0.0968
in water, 348.25 K | 0.12
